Results taken from patent US5439887A, “Peptide having antihypertensive activity free of vascoconstrictor activity” (Roussel-Uclaf, priority 1992, dated 1995).
pIC50: −log10 of the molar value. Bridge positions count the residues as written; N and C are the ends. Peptide text beside a SMILES is read from it.

These molecules were tested against endothelin receptor (assay: [125I]endothelin displacement from rat posterior cortex plus cerebellum membranes). Conditions: displacement of [125I]endothelin, rat brain membranes, 25° C., 60 minutes.
Format: binding
Experimental: A membrane preparation was made from rat posterior cortex plus cerebellum and the tissue was ground using a POLYTRON in 50 mM Tris buffer pH 7.4. After 30 minutes at 25° C. (water bath), the homogenate was centrifuged at 30,000 g for 15 minutes (2 centrifugations interspersed by taking up in Tris buffer pH 7.4).
The pellets were resuspended in an incubation buffer (25 mM Tris, pepstatin A 5 μg/ml, aprotinin 3 μg/ml, 0.1 mM PMSF, 3 mM EDTA, 1 mM EGTA pH 7.4).
2 ml aliquots were distributed in haemolysis tubes and [125 I]endothelin (approximately 50,000 dpm/tube) and the test product were added. The product was first tested at […] in triplicate. When the test product displaced by more than 50% the radioactivity specifically bound to the receptor, it was tested again in a series of 7 concentrations to determine the concentration which inhibited by 50% the radioactivity specifically bound to the receptor. The 50% inhibitory concentration was thereby determined.
Non-specific binding was determined by adding 10^-6 M endothelin (in triplicate). The preparation was incubated at 25° C. for 60 minutes, put back on a water bath at 0° C. for 5 minutes, filtered off under reduced pressure and rinsed with […] Tris buffer pH 7.4, and the radioactivity was counted in the presence of Triton scintillant. The result was expressed directly as a 50% inhibitory concentration (IC50), that is to say as a concentration of test product, expressed in nM, required to displace 50% of the specific radioactivity bound to the receptor under study.

| pIC50 | SMILES |
| --- | --- |
| 8.62 | CC[C@H](C)[C@H](NC(=O)[C@H](CC(=O)O)NC(=O)[C@H](CC(C)C)NC(=O)[C@H](Cc1c[nH]cn1)NC(=O)[C@@H]1CSSC[C@H](N)C(=O)N[C@@H](CO)C(=O)N[C@H]2CSSC[C@H](NC(=O)[C@H](CCC(=O)O)NC(=O)[C@H](CCCCN)NC(=O)[C@H](CC(=O)O)NC(=O)[C@H](CC(C)C)NC(=O)[C@H](CC(=O)O)NC(=O)[C@H](CO)NC(=O)[C@H](Cc3ccccc3)NC2=O)C(=O)N[C@@H](C(C)C)C(=O)N[C@@H](Cc2ccc(O)cc2)C(=O)N[C@@H](Cc2ccccc2)C(=O)N1)C(=O)N[C@H](C(=O)N[C@@H](Cc1c[nH]c2ccccc12)C(=O)O)[C@@H](C)CC [Example 9] (H-CSCFSDLDKECVYFCHLDIIW-OH; disulfide 1-15, 3-11) |
| 8.17 | CC[C@H](C)[C@H](NC(=O)[C@H](CC(=O)O)NC(=O)[C@H](CC(=O)O)NC(=O)[C@H](Cc1c[nH]cn1)NC(=O)[C@@H]1CSSC[C@H](N)C(=O)N[C@@H](CO)C(=O)N[C@H]2CSSC[C@H](NC(=O)[C@H](CCC(=O)O)NC(=O)[C@H](CCCCN)NC(=O)[C@H](CC(=O)O)NC(=O)[C@H](CC(C)C)NC(=O)[C@H](Cc3c[nH]c4ccccc34)NC(=O)[C@H](CO)NC(=O)[C@H](CC(N)=O)NC2=O)C(=O)N[C@@H](C(C)C)C(=O)N[C@@H](Cc2ccc(O)cc2)C(=O)N[C@@H](Cc2ccccc2)C(=O)N1)C(=O)N[C@H](C(=O)N[C@@H](Cc1c[nH]c2ccccc12)C(=O)O)[C@@H](C)CC [Example 12] (H-CSCNSWLDKECVYFCHDDIIW-OH; disulfide 1-15, 3-11) |
| 7.77 | CC[C@H](C)[C@H](NC(=O)[C@H](CC(=O)O)NC(=O)[C@H](CC(C)C)NC(=O)[C@H](Cc1c[nH]cn1)NC(=O)[C@@H]1CSSC[C@H](NC(=O)[C@@H](N)CO)C(=O)N[C@@H](Cc2ccccc2)C(=O)N[C@@H](CO)C(=O)N[C@@H](CO)C(=O)N[C@@H](CC(C)C)C(=O)N[C@@H](CC(=O)O)C(=O)N[C@@H](CCCCN)C(=O)N[C@@H](CCC(=O)O)C(=O)N[C@@H](C)C(=O)N[C@@H](C(C)C)C(=O)N[C@@H](Cc2ccc(O)cc2)C(=O)N[C@@H](Cc2ccccc2)C(=O)N1)C(=O)N[C@H](C(=O)N[C@@H](Cc1c[nH]c2ccccc12)C(=O)O)[C@@H](C)CC [Example 15] (H-SCFSSLDKEAVYFCHLDIIW-OH; disulfide 2-14) |
| 8.14 | CC[C@H](C)[C@H](NC(=O)[C@H](CC(=O)O)NC(=O)[C@H](CC(C)C)NC(=O)[C@H](Cc1c[nH]cn1)NC(=O)[C@@H]1CSSC[C@H](NC(=O)[C@@H](N)CO)C(=O)N[C@@H](CC(N)=O)C(=O)N[C@@H](CO)C(=O)N[C@@H](Cc2c[nH]c3ccccc23)C(=O)N[C@@H](CC(C)C)C(=O)N[C@@H](CC(=O)O)C(=O)N[C@@H](CCCCN)C(=O)N[C@@H](CCC(=O)O)C(=O)N[C@@H](C)C(=O)N[C@@H](C(C)C)C(=O)N[C@@H](Cc2ccc(O)cc2)C(=O)N[C@@H](Cc2ccccc2)C(=O)N1)C(=O)N[C@H](C(=O)N[C@@H](Cc1c[nH]c2ccccc12)C(=O)O)[C@@H](C)CC [Example 16] (H-SCNSWLDKEAVYFCHLDIIW-OH; disulfide 2-14) |
